# Test results as given in US20110183978A1, “Phenylpyri(mi)dinylazoles” (Bayer CropScience AG, priority 2009, published 2011).
# Like-named read-outs stand apart in the source and are kept apart here.
# Experiments:
# Peronospora parasitica = test: Example A: in vivo test on Peronospora parasitica (downy mildew on white cabbage); settings: Hyaloperonospora parasitica, 120 h, cabbage plants sprayed 24 hours before inoculation, scored after 5 days, read-out: % Wirkungsgrad
# Summary of the method: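 Protective spray test: inoculation with 50,000 spores/ml P. parasitica suspension followed 24 h after compound application to cotyledon-stage cabbage (variety Eminence). Plants kept moist at about 20 °C for 5 days and then rated versus controls sprayed without active substance.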
# Sphaerotheca fuliginea [1] = test: Example D: in vivo test on Sphaerotheca fuliginea (powdery mildew on cucumber); settings: Podosphaera fuliginea, 288 h, cucumber plants sprayed 24 hours before inoculation, scored after 12 days, read-out: % Wirkungsgrad
# Summary of the method: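 Scoring took place 12 days after spore inoculation (100,000 spores/ml, at ca. 20/25° C., 60/70% RH) and was made against plants sprayed without active substance. Inoculation followed by 24 hours a spray of water-diluted acetone/Tween/DMSO compound suspension onto Z10 cotyledon-stage cucumbers.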
# Puccinia recondita = test: Example F: in vivo test on Puccinia recondita (wheat brown rust); settings: 240 h, wheat plants sprayed 24 hours before inoculation, scored after 10 days, read-out: % Wirkungsgrad
# Method: In Vivo Test on Puccinia Recondita (Wheat Brown Rust) An aqueous suspension of the active substance was prepared by homogenization of a mixture of acetone/Tween/dimethyl sulphoxide and subsequent dilution with water to the desired concentration. Wheat plants (variety: Scipion) are sown in cultivation dishes on a peat-pozzolanic earth substrate (50/50) at 12° C. and sprayed at the first-leaf stage (10 cm size) with the aqueous suspension described above. As a control, plants are sprayed with an aqueous solution with no active substance. After 24 hours the plants are inoculated by spraying with an aqueous suspension of Puccinia recondita spores (100,000 spores per ml). The spores are derived from a 10 day-old infected wheat crop and are suspended in water with 2.5 ml/l Tween. […] After 10 days they are scored in comparison with the control plants.
# Sphaerotheca fuliginea [2] = test: Example L: in vivo test on Sphaerotheca fuliginea (powdery mildew on cucumber/protective); settings: Podosphaera fuliginea, 168 h, cucumber, protective, assessment 7 days after inoculation, read-out: % Wirkungsgrad
# Summary of the method: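 Young cucumber plants sprayed at stated dosage with compound in DMF/alkylaryl polyglycol ether emulsifier diluted in water; inoculated with S. fuliginea spores one day later. Kept in greenhouse at 70% relative humidity, 23° C; protective activity assessed 7 days after inoculation.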
# Alternaria solani = test: Example M: in vivo test on Alternaria solani (leaf blotch disease/tomato/protective); settings: 168 h, tomato, protective, 500 ppm active substance, assessed 7 days after inoculation, read-out: % Wirkungsgrad (activity level)
# Summary of the method: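 Alternaria solani infection on tomato scored 7 days post-inoculation. Before inoculation, young plants received a protective spray at the stated application dose; formulation was compound mixed with N,N-dimethylformamide and emulsifier, water-diluted.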
# Plasmopara viticola = test: Example N: in vivo test on Plasmopara viticola (downy mildew, vine/protective); settings: 144 h, vine, protective, assessment 6 days after inoculation, read-out: % Wirkungsgrad
# Summary of the method: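 Assessment of downy mildew on vines took place 6 days post-inoculation, after 1 day of moist incubation. Before infection, the young plants received a protective spray of compound emulsified with alkylaryl polyglycol ethers and diluted with water to the stated application rate.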
# Venturia inaequalis = test: Example O: in vivo test on Venturia inaequalis (apple scab/protective); settings: 240 h, protective, assessment 10 days after inoculation, read-out: % Wirkungsgrad
# Summary of the method: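 Young plants received a preventive spray of compound formulated as an emulsifier-containing aqueous dilution at the given application rate, then were inoculated with apple scab fungus. Disease was scored 10 days post-inoculation.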
# Botrytis cinerea [3] = test: Example P: in vivo test on Botrytis cinerea (gray mould on bean/protective); settings: 48 h, bean, protective, 250 ppm active substance, assessed 2 days after inoculation, read-out: % Wirkungsgrad (activity level)
# Summary of the method: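 Infection blotch size on leaves was scored 2 days after placing 2 Botrytis-colonised agar pieces per leaf. Inoculation followed drying of a protective spray applied to young plants at the stated dosage. Spray was prepared by diluting compound with solvent and alkylaryl polyglycol ether emulsifier in water.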
# Botrytis cinerea [4] = test: Example B: in vivo test on Botrytis cinerea (grey mould on cucumbers); settings: cucumber plants sprayed 24 hours before inoculation, scored after 5-7 days, read-out: % Wirkungsgrad
# Method: In Vivo Test on Botrytis Cinerea (Grey Mould on Cucumbers) An aqueous suspension of the active substance was prepared by homogenization of a mixture of acetone/Tween/dimethyl sulphoxide and subsequent dilution with water to the desired concentration. Cucumber plants (variety: Vert petit de Paris) are sown in cultivation dishes on a peat-pozzolanic earth substrate (50/50) at 18-20° C. and sprayed at the cotyledon stage Z11 with the aqueous suspension described above. As a control, plants are sprayed with an aqueous solution with no active substance. […] The spores are derived from a 15 day-old culture which are suspended in the following nutrient solution: • 20 g/l gelatine • 50 g/l D-fructose • 2 g/l NH4NO3 • 1 g/l KH2PO4 The inoculated cucumber plants are kept for 5-7 days in a climatic chamber at […] After 5-7 days they are scored in comparison with the control plants.
# [5] = test system: Mycosphaerella graminicola; test: Example G: in vivo test on Mycosphaerella graminicola (wheat leaf blotch disease); settings: Zymoseptoria tritici, wheat plants sprayed 24 hours before inoculation, scored after 21 to 28 days, read-out: % Wirkungsgrad
# Summary of the method: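 Scipion wheat at first-leaf stage (10 cm) was sprayed with aqueous active-substance suspension, then inoculated 24 hours later with Mycosphaerella graminicola spores (500,000 spores per ml) from 7 day-old culture. Disease was scored after 21 to 28 days against untreated sprayed controls.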
# Fusarium proliferatum = test: Example I: production of fumonisin FB1 by Fusarium proliferatum (microtitre plates); type: cell-based; settings: 120 h
# Fusarium graminearum = test: microbe, parasite or virus in culture; type: cell-based
# Pyricularia oryzae = test: whole plant or invertebrate; type: in vivo; settings: 120 h, read-out: % Activity level
# Rhizoctonia solani = test: Example W: in vivo test on Rhizoctonia solani (sheath blight in rice/protective); settings: 96 h, rice, protective, 250 ppm active substance, assessed 4 days after inoculation, read-out: % Activity level
# Method: Solvent: 28.5 parts by weight acetone Emulsifier: 1.5 parts by weight alkylaryl polyglycol ethers For the preparation of a suitable active substance preparation, 1 part by weight of active substance is mixed with the stated quantities of solvent and emulsifier and the concentrate is diluted to the desired concentration with water. For the testing for protective activity, young rice plants are sprayed with the active substance preparation at the stated application dosage. One day after the treatment, the plants are inoculated with hyphae of Rhizoctonia solani. […] 4 days after the inoculation, the assessment takes place.
# Cochliobolus miyabeanus = test: Example X: in vivo test on Cochliobolus miyabeanus (brown spot disease, rice/protective); settings: Bipolaris oryzae, 96 h, read-out: % Activity level
molecule,measurement,setting,value
Fc1ccc(-c2nn(CC3CC3)cc2-c2ccncc2)cc1 [Compound 126],pest or weed control at 500 ppm,Peronospora parasitica,89%
same,pest or weed control at 500 ppm,Sphaerotheca fuliginea [1],85%
same,pest or weed control at 500 ppm,Puccinia recondita,75%
same,pest or weed control at 500 ppm,Sphaerotheca fuliginea [2],95%
same,pest or weed control at 500 ppm,Alternaria solani,95%
same,pest or weed control at 100 ppm,Plasmopara viticola,81%
same,pest or weed control at 100 ppm,Venturia inaequalis,98%
same,pest or weed control at 250 ppm,Botrytis cinerea [3],100%
same,chromatographic logP,"physchem; LogPA (logP of the stated pure compound or, in a mixture, of the main isomer, 1-substituted 3-aryl-1H-pyrazole)",1.33
C#CCn1nc(-c2ccc(F)cc2)c(-c2ccncc2)c1C [Compound 171],pest or weed control at 500 ppm,Peronospora parasitica,91%
same,pest or weed control at 500 ppm,Botrytis cinerea [4],71%
same,pest or weed control at 500 ppm,Sphaerotheca fuliginea [1],100%
same,pest or weed control at 500 ppm,Puccinia recondita,94%
same,pest or weed control at 500 ppm,[5],93%
same,pest or weed control at 500 ppm,Sphaerotheca fuliginea [2],100%
same,pest or weed control at 500 ppm,Alternaria solani,95%
same,pest or weed control at 250 ppm,Botrytis cinerea [3],84%
same,chromatographic logP,physchem; LogPA,2.51
O=C(Nc1cc(-c2cn(CCCl)nc2-c2ccc(F)cc2)ccn1)C1CC1 [Compound 221],inhibition at 50 µM,"Fusarium proliferatum; Fusarium proliferatum growth, OD 620, 5 days, read-out: % Inhibition des Pilzwachstums bei 50 μM",99%
same,inhibition at 50 µM,"Fusarium proliferatum; Fusarium proliferatum, 5 days at 20° C., HPLC-MS/MS, read-out: % Inhibition der FB1 produktion bei 50 μM",100%
same,inhibition at 50 µM,"Fusarium graminearum; 72 h, read-out: % Inhibition des Pilzwachstums bei 50 μM",100%
same,inhibition at 50 µM,"Fusarium graminearum; 168 h, read-out: % Inhibition der DON/AcDON produktion bei 50 μM",100%
same,pest or weed control at 500 ppm,Sphaerotheca fuliginea [2],100%
same,pest or weed control at 100 ppm,Venturia inaequalis,91%
same,pest or weed control at 250 ppm,Botrytis cinerea [3],100%
same,pest or weed control at 250 ppm,Pyricularia oryzae,92%
same,pest or weed control at 250 ppm,Rhizoctonia solani,100%
same,pest or weed control at 250 ppm,Cochliobolus miyabeanus,80%
same,chromatographic logP,physchem; LogPA,2.1
"Cc1cc(F)ccc1-c1c(-c2ccncc2)cnn1C1CCCCO1 (centres unmarked) [[X-5], 4-[5-(4-fluoro-2-methylphenyl)-1-(tetrahydro-2H-pyran-2-yl)-1H-pyrazol-4-yl]pyrid]",LogP (pH 2.3),,1.40
"Cc1cc(-c2c(-c3ccncc3)cnn2C2CCCCO2)ccc1F (centres unmarked) [[X-7], 4-[5-(4-fluoro-3-methylphenyl)-1-(tetrahydro-2H-pyran-2-yl)-1H-pyrazol-4-yl]pyrid]",LogP (pH 2.3),,1.47
CC(=O)Nc1ccc(-c2c(-c3ccncc3)cnn2C2CCCCO2)cc1 (centres unmarked) [[X-13]],LogP (pH 2.3),,0.97
Mixture of 4-bromo-3-(4-fluorophenyl)-1-isopropyl-1H-pyrazole and 4-bromo-5-(4-fluoro-phenyl)-1-isopropyl-1H-pyrazole [[VI-1]],logP (pH 2.7),pH 2.7,3.96
same,"logP (pH 2.7), minor isomer",pH 2.7,3.68
N-Benzyl-4-[3-(4-fluorophenyl)-1-isopropyl-1H-pyrazol-4-yl]pyrimidin-2-amine [[I-f-1]],logP (pH 2.7),pH 2.7,3.31
